{"source": "patent US9624249B2", "about": "“Nucleoside kinase bypass compositions and methods” (Merck Sharp & Dohme Corp., priority 2013, dated 2017)", "format_in_all_cases": "cell-based", "key": {"[1]": {"system": "hepatitis virus C (HCV) genotype 1a", "experiment": "HCV subgenomic replicon assay (RHEPTAQ), genotype 1a", "details": "Hepatitis C virus, Table 4, genotype 1a; read-out: Replicon: EC50 (1a)", "text": "(§1) Table 3 and Table 4 summarize the measured activities of these prodrugs as assessed in a subgenomic replicon assay (RHEPTAQ), against genotypes 1a, 1b and 2a."}, "Tox: EdU/CellCount CC50": {"experiment": "Tox: EdU/CellCount CC50"}, "[2]": {"system": "hepatitis virus C (HCV) genotype 1c", "experiment": "HCV replicon, genotype printed as 1c", "details": "read-out: Replicon: EC50 (1c)"}, "[3]": {"system": "hepatitis virus C (HCV) genotype 1b", "experiment": "HCV subgenomic replicon assay (RHEPTAQ), genotype 1b", "details": "Hepatitis C virus, Table 4, genotype 1b; read-out: Replicon: EC50 (1b)", "text": "as §1"}}, "note": "Like-named read-outs stand apart in the source and are kept apart here."}
{"compound": "C[C@@]1(F)[C@@H]2OP(=O)(OC3CSSC[C@@H]3OCc3ccccc3)OCC2O[C@H]1n1ccc(=O)[nH]c1=O", "note": "(some centres unmarked)", "values": [{"measurement": "EC50", "setting": "[1]", "result": 92, "unit": "nM"}, {"measurement": "CC50", "setting": "Tox: EdU/CellCount CC50; CellCount readout, read-out: Tox: CellCount CC50", "result": 85, "unit": "µM"}, {"measurement": "CC50", "setting": "Tox: EdU/CellCount CC50; EdU readout, read-out: Tox: EdU CC50", "result": 30, "unit": "µM"}, {"measurement": "EC50", "setting": "[2]", "result": 101, "unit": "nM"}, {"measurement": "EC50", "setting": "[3]", "result": 107, "unit": "nM"}]}
